The values that follow come from ChEMBL document CHEMBL4330149, “Lignan Dimers from Forsythia viridissima Roots and Their Antiviral Effects” (J Nat Prod, 2019).

pIC50: −log10 of the molar value.

The test system of one data set is rhinovirus A1B. Nature of the data set: Antiviral activity against Human rhinovirus 1B infected in human HeLa cells assessed as reduction in virus-induced cytopathic effect after 2 days by SRB staining based microscopic method. Format: functional, organism-based. The note with it: Rhinovirus A, 48 h. On the technique in general: Damage to the host cells serves as the signal in cytopathic effect assays.

Data set [1] can be described thus: Cytotoxicity against human HeLa cells assessed as growth inhibition after 2 days by SRB assay. The format is cell-based. On the technique in general: The SRB assay estimates cell density from bound dye.
Data set [2] can be described thus: Selectivity index, ratio of CC50 for human HeLa cells to IC50 for Human rhinovirus 1B infected in human HeLa cells. Format: toxicity, cell-based. The note with it: read-out: Ratio CC50/IC50.
Another data set concerns Coxsackievirus B3. Nature of the data set: Antiviral activity against Coxsackievirus B3 infected in African green monkey Vero cells assessed as reduction in virus-induced cytopathic effect after 2 days by SRB staining based microscopic method. The format is functional, organism-based. The note with it: Enterovirus B, 48 h.
Data set [3] in a line: Cytotoxicity against African green monkey Vero cells assessed as growth inhibition after 2 days by SRB assay. Format: cell-based. The conditions noted are these: chlorocebus sabaeus.
The nature of data set [4]: Selectivity index, ratio of CC50 for African green monkey Vero cells to IC50 for Coxsackievirus B3 infected in African green monkey Vero cells. The format is toxicity. The note with it: read-out: Ratio CC50/IC50.

In general, pIC50 refers to −log10 of the IC50, conventionally taken in molar units. The term CC50 denotes the concentration at which the toxic effect on the cells reaches its halfway point. As to `COc1ccc(C[C@H]2COC(=O)[C@@H]2Cc2ccc(Oc3cc(C[C@H]4C(=O)OC[C@@H]4Cc4ccc(OC)c(OC)c4)cc(OC)c3O)c(OC)c2)cc1OC`, the pIC50 in the data set with rhinovirus A1B was 4.89. Further, the CC50 at 48 h in data set [1] was over 50 µM. Further, the selectivity ratio in data set [2] is over 3.8.

`COc1cc(C[C@H]2COC(=O)[C@@H]2Cc2cc(OC)c(O)c(-c3cc(C[C@H]4C(=O)OC[C@@H]4Cc4ccc(OC)c(OC)c4)cc(OC)c3O)c2)ccc1O`: the pIC50 with rhinovirus A1B is 4.32. Besides, in data set [1], the CC50 at 48 h was over 50 µM. Also, the selectivity ratio in data set [2] was over 1.1.

In the case of `COc1cc(C[C@H]2C(=O)OC[C@@H]2Cc2cc(OC)c(O)c(-c3cc(C[C@H]4C(=O)OC[C@@H]4Cc4ccc(OC)c(OC)c4)cc(OC)c3O)c2)ccc1O`, in the data set with rhinovirus A1B, the pIC50 was 4.34. Moreover, the CC50 at 48 h in data set [1] was over 50 µM. The selectivity ratio in data set [2] was over 1.1.

With `COc1cc([C@@H](OC)[C@@H]2CO[C@H](c3ccc(O)c(OC)c3)[C@@H]2CO)ccc1O` (relative stereo), the pIC50 in the data set on Coxsackievirus B3 was 4.81. Moreover, the CC50 at 48 h in data set [3] was over 50 µM. For the same compound, the selectivity ratio in data set [4] is over 3.2.

Consider `COc1cc(C[C@H]2COC(=O)[C@@H]2Cc2ccc(O)c(OC)c2)ccc1O` [MATAIRESINOL], for which, in the data set on rhinovirus A1B, the pIC50 was 4.36. In data set [1], the CC50 at 48 h is over 50 µM. In addition, the selectivity ratio in data set [2] is over 1.2.

With `CCOC(=O)/C=C/[C@H](C[C@@H]1CCNC1=O)NC(=O)[C@@H](CC(=O)[C@@H](NC(=O)c1cc(C)on1)C(C)C)Cc1ccc(F)cc1` [RUPINTRIVIR], the pIC50 in the data set with Coxsackievirus B3 is 5.18. The CC50 at 48 h in data set [3] and in data set [1] was over 50 µM throughout. Also, the selectivity ratio in data set [4] was over 7.6.
